Tests used:
[1] = system: Chromobacterium violaceum (CV026); assay: Quorum sensing inhibition test with bio-reporter CV026 (TLC overlay); assay type: cell-based; conditions: for Degree of QSI of CV026: Table 1, coumaperine derivatives, 40 mM in ~20 μL acetonitrile dried on TLC plate, overnight, color intensity; for QSI activity against CV026, in words: running text; as to Degree of QSI of CV026: key: −: no inhibition; +: low inhibition; ++: medium inhibition; +++: strong inhibition; as to Degree of quorum sensing inhibition (QSI), CV026: key: −: no inhibition; +: low inhibition; ++: medium inhibition; +++: strong inhibition
Description: (§1) TLC preparation: all derivatives were dissolved in 100% acetonitrile to a concentration of 40 mM. Then placed 20 μlon the same spot on the TLC and let the solvent evaporate before use. CV026: few colonies were transferred to liquid LB (Lenox) for overnight incubation at 30° C. in a 45 degree in orbital shaker. At the O.D. 0.8 3 ml of the starter was added to preheated soft LB agar containing 500 nM of 3-oxo-C6 (Sigma-Aldrich). The mixture was then loaded on the TLC in a glass plate for O.N. incubation in 30° C. The next day inhibition zone was measured, while QS is taking place bacteria produce purple pigment, and when QS is inhibited no pigment is produced. KYC55 (pJZ372) (pJZ384) (pJZ410): 20 μl from the frozen stock into 25 ml AT media (AT buffer×20: 1.57 M KH2PO4 pH=7.3. AT salts mix×20: 300 mM (NH4)2SO4, 13 mM MgSO4, 1.4 mM CaCl2, 0.4 mM FeSO4·7H2O, 0.26 mM MnSO4·H2O. AT media: 50 ml×20 AT-buffer, 50 ml×20 AT-salts, 10 ml 50% (w/v) glucose, add 890 ml to final volume of 1 liter.) For O.N. at 30° C. in an orbital shaker. Into preheated water agar with 25 ml AT-buffer, and 60 μg/ml X-gal and 5 nM 3-oxo-c8 (both from Sigma-Aldrich) 25 ml of the starter was added. Then, that mixture was loaded on the TLC in glass plate for O.N. incubation in 30° C. The next day the inhibition zone was measured. The bacteria produce blue pigment during QS and when QS is inhibited no pigment is produced. KYC55 (pJZ372) (pJZ384) (pJZ410) preservation in tetracycline (1 μg/ml), spectinomycin (100 μg/ml), gentamicin (100 μg/ml) (all antibiotics from Sigma Aldrich) in AT media O.N. then centrifuged and suspend in 15% glycerol frozen and maintained at −80° C.

[2] = system: Agrobacterium tumefaciens (KYC55); assay: Quorum sensing inhibition test with bio-reporter KYC55 (TLC overlay); assay type: cell-based; conditions: for Degree of QSI of KYC55: Table 1, coumaperine derivatives, 40 mM in ~20 μL acetonitrile dried on TLC plate, overnight, color intensity; for QSI activity against KYC55, in words: running text; as to Degree of QSI of KYC55: key: −: no inhibition; +: low inhibition; ++: medium inhibition; +++: strong inhibition; as to Degree of quorum sensing inhibition (QSI), KYC55: key: −: no inhibition; +: low inhibition; ++: medium inhibition; +++: strong inhibition
Description: as §1

[3] = Table 2, piperlongumine derivatives

SMILES	Degree of QSI of CV026 [1]	QSI activity against CV026, in words [1]	Degree of QSI of KYC55 [2]	QSI activity against KYC55, in words [2]	Degree of quorum sensing inhibition (QSI), CV026 [1, 3]	Degree of quorum sensing inhibition (QSI), KYC55 [2, 3]	Degree of quorum sensing inhibition (QSI), CV026 ([1]; Table 3, curcumin derivatives)	Degree of quorum sensing inhibition (QSI), KYC55 ([2]; Table 3, curcumin derivatives)
O=C(/C=C/C=C/c1ccc(Cl)cc1)N1CCCCC1 [CP-123, (2E,4E)-5-(4-chlorophenyl)-1-(piperidin-1-yl)penta-2,4-dien-1-one]	−	inactive	+	low activity				
COc1cc(/C=C/C(=O)N2CCCCC2)ccc1OC(C)=O [CP-291]	−	inactive	++	moderate activity				
C=CCNC(=O)/C=C/c1cc(OC)c(OC)c(OC)c1					−	+		
COc1ccc(/C=C/C=C/C=C/C(=O)N2CCCCC2)cc1 [CP-102, (2E,4E,6E)-7-(4-methoxyphenyl)-1-(piperidin-1-yl)hepta-2,4,6-trien-1-one]	++	moderate	+	low				
COc1ccc(/C=C/C=C/C(=O)N2CCCCC2)c(OC)c1OC [CP-50, (2E,4E)-1-(piperidin-1-yl)-5-(2,3,4-trimethoxyphenyl)penta-2,4-dien-1-one]	−	inactive	−	inactive				
COc1cc(/C=C/C(=O)OC(=O)/C=C/c2cc(OC)c(OC)c(OC)c2)cc(OC)c1OC [PL-16A]		inactive		inactive	−	−		
COc1cc(/C=C/C=C/C(=O)N2CCCCC2)cc(OC)c1 [CP-193, (2E,4E)-5-(3,5-dimethoxyphenyl)-1-(piperidin-1-yl)penta-2,4-dien-1-one]	+	low activity	−	inactivity				
CN(C)c1ccc(/C=C/C=C/C(=O)N2CCCCC2)cc1 [CP-32, (2E,4E)-5-(4-(dimethylamino)phenyl)-1-(piperidin-1-yl)penta-2,4-dien-1-one]		low activity		inactivity				
COc1cc(/C=C/C(=O)NCCc2ccc(O)c(O)c2)cc(OC)c1OC					−	−		
COc1cc(/C=C/C(=O)N2CCCCC2)cc(OC)c1OC					−	−		
CCOC(=O)CNC(=O)/C=C/c1cc(OC)c(OC)c(OC)c1					−	−		
COc1cc(/C=C/C(=O)CC(=O)/C=C/c2ccc(O)c(OC)c2)ccc1O [curcumin, Curcumin, reference compound]		low activity		inactive			+	−
COc1ccc(/C=C/C=C/C(=O)N2CCCCC2)cc1OC [CP-10, (2E,4E)-5-(3,4-dimethoxyphenyl)-1-(piperidin-1-yl)penta-2,4-dien-1-one]	−	inactive	−	inactive				
COc1cc(/C=C/C(=O)NCCc2ccc(O)cc2)cc(OC)c1OC					−	−		
O=C(/C=C/C=C/c1ccc(OC2CCCC2)cc1)N1CCCCC1 [CP-184, (2E,4E)-5-(4-(cyclopentyloxy)phenyl)-1-(piperidin-1-yl)penta-2,4-dien-1-one]	−	inactive	−	inactive				
COc1cc(/C=C/C(=O)CC(=O)/C=C/c2ccc(OC(C)=O)c(OC)c2)ccc1OC(C)=O [AC-CU, Diacetylated Curcumin]		inactive		inactive			−	−
COc1cc(/C=C/C(=O)NCCO)cc(OC)c1OC					−	−		
O=C(/C=C/c1ccc(O)c(O)c1)N1CCCCC1 [CP-237, (E)-3-(3,4-dihydroxyphenyl)-1-(piperidin-1-yl)prop-2-en-1-one]	++	moderate activity	++	moderate activity				
COc1cc(/C=C/C=C/C(=O)N2CCCCC2)cc(OC)c1OC [CP-27, (2E,4E)-1-(piperidin-1-yl)-5-(3,4,5-trimethoxyphenyl)penta-2,4-dien-1-one]	−	inactive	−	inactive				
COc1cc(/C=C/C(=O)NC(C)C)cc(OC)c1OC					−	−		
COc1cc(/C=C/C(=O)NCCCCC(=O)O)cc(OC)c1OC					−	−		
COc1cc(/C=C/C(=O)NCC(=O)O)cc(OC)c1OC					−	+		
CCNC(=O)/C=C/c1cc(OC)c(O)c(OC)c1					−	−		
O=C(/C=C/C=C/c1ccc2c(c1)OCO2)N1CCCCC1 [CP-262-F1]	−	inactive	−	inactive				
CCNC(=O)/C=C/c1cc(OC)c(OC)c(OC)c1 [PL-17, (E)-N-ethyl-3-(3,4,5-trimethoxyphenyl)acrylamide]		inactive		inactive	−	−		
O=C(CCCCc1ccc2c(c1)OCO2)N1CCCCC1 [CP-THP, Tetrahydro Piperine]	+	low activity	+	low activity				
